These results are taken from patent US20130150386A1 (priority 2011, published 2013).

The conditions of series [1]: in vivo; cited from earlier work.
Series [2] concerns NSCLC patients. The conditions noted are these: E-cad 3+ sub-group [N=26].

Regarding `Nc1ccccc1NC(=O)c1ccc(CNC(=O)OCc2cccnc2)cc1` [Entinostat, N-(2-aminophenyl)-4-[N-(pyridine-3-yl)methoxycarbonylamino-methyl]-benzamide], the half-life result in series [1] was “about 100 hours”.
For `C#Cc1cccc(Nc2ncnc3cc(OCCOC)c(OCCOC)cc23)c1` [erlotinib/placebo], in series [2], the overall survival amounted to 5.4 months.
